Test results as given in the supplement of paper PMC10307832.

Each cell line was assayed with Cc1cc([C@@H](C)Nc2ccccc2C(=O)O)c2nc(N3CCOCC3)cc(=O)n2c1 [AZD6482] + CC(=O)Nc1cccc(-n2c(=O)n(C3CC3)c(=O)c3c(Nc4ccc(I)cc4F)n(C)c(=O)c(C)c32)c1 [Trametinib] (partner 0.02 µM) (assay: relative viability (nuclei count vs DMSO), 5 days (fraction); higher = more cells survive). Settings: first compound 0.08 µM.
How it was run: (§1)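 Lung cancer cell lines in 1536-well plates were dosed by pin tool the day after seeding, either with one drug alone or with a fixed anchor-drug dose plus five library-drug doses (not always all listed) in √10 steps. After 5 days, cells were fixed and their nuclei stained in one step (final 0.05% Triton X-100, 1% formaldehyde, 1 ug/ml Hoechst), then counted on 4× images. Relative viability is the nuclei count in treated wells divided by that in vehicle wells. Values are medians of duplicate plates.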
Work on NCI-H1648 yielded a relative viability of 0.483.
With SK-MES-1 the relative viability was 0.394.
H3255 showed a relative viability of 0.604.
Cell Line COR-L23 has a relative viability of 0.553.
For COR-L 105, the relative viability was 0.378.
For LOU-NH91, the relative viability was 0.752.
Cell Line ChaGo-K-1 has a relative viability of 0.922.
NCI-H2170 gave a relative viability of 0.878.
NCI-H2405 gave a relative viability of 0.459.
In the case of HOP-62, the relative viability is reported as 0.247.
For HCC-44, the relative viability was 0.926.
For NCI-H522, the relative viability was 0.872.
For LU99A, the relative viability was 0.457.
Cell Line BEN has a relative viability of 0.898.
For HARA, the relative viability was 0.538.
Work on SW 900 yielded a relative viability of 0.851.
Cell Line HCC-78 has a relative viability of 0.547.

Same assay, conditions: first compound 0.253 µM
For NCI-H2342, the relative viability was 0.685.
For NCI-H727, the relative viability was 0.358.
NCI-H1650 was tested, and the relative viability was 0.455.
NCI-H1993 showed a relative viability of 0.498.
Cell Line SW 1573 has a relative viability of 0.508.
In the case of NCI-H838, the relative viability is reported as 0.494.
For LCLC-103H, the relative viability was 0.607.
NCI-H520 showed a relative viability of 0.463.
With NCI-H2126 the relative viability was 0.531.
Work on EMC-BAC-2 yielded a relative viability of 0.956.
With NCI-H2085 the relative viability was 0.231.
Work on HCC-366 yielded a relative viability of 0.279.
Work on NCI-H1666 yielded a relative viability of 0.944.
Cell Line NCI-H596 has a relative viability of 0.817.
With LK-2 the relative viability was 0.649.
NCI-H2087 showed a relative viability of 0.162.
NCI-H1648 gave a relative viability of 0.434.
Work on SK-MES-1 yielded a relative viability of 0.454.
For H3255, the relative viability was 0.551.
COR-L23 was tested, and the relative viability was 0.598.
With COR-L 105 the relative viability was 0.451.
Work on LOU-NH91 yielded a relative viability of 0.8.
ChaGo-K-1 showed a relative viability of 0.874.
In the case of NCI-H2170, the relative viability is reported as 0.879.
For NCI-H2405, the relative viability was 0.559.
HOP-62 gave a relative viability of 0.342.
Cell Line HCC-44 has a relative viability of 1.07.
NCI-H522 gave a relative viability of 0.711.
Work on LU99A yielded a relative viability of 0.478.
Work on BEN yielded a relative viability of 0.947.
For HARA, the relative viability was 0.496.
Cell Line SW 900 has a relative viability of 0.591.
HCC-78 was tested, and the relative viability was 0.496.

Same assay, conditions: first compound 0.8 µM
Cell Line NCI-H2342 has a relative viability of 0.799.
Work on NCI-H727 yielded a relative viability of 0.394.
For NCI-H1650, the relative viability was 0.614.
NCI-H1993 was tested, and the relative viability was 0.446.
Cell Line SW 1573 has a relative viability of 0.526.
NCI-H838 gave a relative viability of 0.451.
With LCLC-103H the relative viability was 0.649.
NCI-H520 gave a relative viability of 0.433.
Work on NCI-H2126 yielded a relative viability of 0.448.
Cell Line EMC-BAC-2 has a relative viability of 0.893.
In the case of NCI-H2085, the relative viability is reported as 0.218.
HCC-366 was tested, and the relative viability was 0.286.
For NCI-H1666, the relative viability was 0.808.
Cell Line NCI-H596 has a relative viability of 0.774.
Work on LK-2 yielded a relative viability of 0.782.
For NCI-H2087, the relative viability was 0.133.
With NCI-H1648 the relative viability was 0.491.
SK-MES-1 was tested, and the relative viability was 0.414.
H3255 showed a relative viability of 0.575.
COR-L23 showed a relative viability of 0.652.
COR-L 105 was tested, and the relative viability was 0.46.
LOU-NH91 showed a relative viability of 0.757.
ChaGo-K-1 showed a relative viability of 0.878.
For NCI-H2170, the relative viability was 0.844.
NCI-H2405 was tested, and the relative viability was 0.531.
In the case of HOP-62, the relative viability is reported as 0.242.
Work on HCC-44 yielded a relative viability of 1.08.
In the case of NCI-H522, the relative viability is reported as 0.841.
LU99A gave a relative viability of 0.539.
BEN gave a relative viability of 1.02.
Work on HARA yielded a relative viability of 0.453.
With SW 900 the relative viability was 0.703.
Cell Line HCC-78 has a relative viability of 0.57.

Same assay, conditions: first compound 2.53 µM
Cell Line NCI-H2342 has a relative viability of 0.561.
In the case of NCI-H1650, the relative viability is reported as 0.546.
For NCI-H1993, the relative viability was 0.52.
In the case of SW 1573, the relative viability is reported as 0.336.
Work on NCI-H838 yielded a relative viability of 0.316.
For LCLC-103H, the relative viability was 0.547.
NCI-H520 showed a relative viability of 0.201.
With NCI-H2126 the relative viability was 0.39.
With EMC-BAC-2 the relative viability was 0.667.
Cell Line NCI-H2085 has a relative viability of 0.223.
HCC-366 gave a relative viability of 0.182.
With NCI-H1666 the relative viability was 0.81.
For NCI-H596, the relative viability was 0.589.
In the case of LK-2, the relative viability is reported as 0.623.
Work on NCI-H2087 yielded a relative viability of 0.132.
SK-MES-1 showed a relative viability of 0.294.
For H3255, the relative viability was 0.402.
COR-L23 showed a relative viability of 0.403.
COR-L 105 showed a relative viability of 0.383.
With LOU-NH91 the relative viability was 0.603.
ChaGo-K-1 gave a relative viability of 0.803.
Work on NCI-H2170 yielded a relative viability of 0.836.
In the case of NCI-H2405, the relative viability is reported as 0.365.
HOP-62 showed a relative viability of 0.262.
In the case of HCC-44, the relative viability is reported as 1.08.
For NCI-H522, the relative viability was 0.549.
LU99A gave a relative viability of 0.568.
BEN gave a relative viability of 0.866.
With HARA the relative viability was 0.336.
SW 900 gave a relative viability of 0.43.
HCC-78 gave a relative viability of 0.345.

Same assay, conditions: first compound 8 µM
For NCI-H2342, the relative viability was 0.622.
NCI-H727 gave a relative viability of 0.386.
Cell Line NCI-H1650 has a relative viability of 0.527.
With NCI-H1993 the relative viability was 0.475.
For SW 1573, the relative viability was 0.307.
Cell Line NCI-H838 has a relative viability of 0.336.
LCLC-103H was tested, and the relative viability was 0.496.
Cell Line NCI-H520 has a relative viability of 0.26.
NCI-H2126 showed a relative viability of 0.351.
EMC-BAC-2 was tested, and the relative viability was 0.706.
Work on NCI-H2085 yielded a relative viability of 0.218.
Cell Line HCC-366 has a relative viability of 0.193.
Work on NCI-H1666 yielded a relative viability of 0.835.
For NCI-H596, the relative viability was 0.59.
LK-2 was tested, and the relative viability was 0.564.
NCI-H2087 gave a relative viability of 0.183.
Cell Line NCI-H1648 has a relative viability of 0.365.
With SK-MES-1 the relative viability was 0.291.
Work on H3255 yielded a relative viability of 0.367.
Cell Line COR-L23 has a relative viability of 0.521.
In the case of COR-L 105, the relative viability is reported as 0.423.
LOU-NH91 gave a relative viability of 0.623.
ChaGo-K-1 was tested, and the relative viability was 0.857.
With NCI-H2170 the relative viability was 0.733.
With NCI-H2405 the relative viability was 0.395.
Work on HOP-62 yielded a relative viability of 0.232.
For HCC-44, the relative viability was 0.858.
With NCI-H522 the relative viability was 0.566.
LU99A was tested, and the relative viability was 0.475.
BEN gave a relative viability of 0.817.
With HARA the relative viability was 0.352.
For SW 900, the relative viability was 0.568.
Cell Line HCC-78 has a relative viability of 0.417.

What follows are cell lines tested with Cc1cc([C@@H](C)Nc2ccccc2C(=O)O)c2nc(N3CCOCC3)cc(=O)n2c1 [AZD6482] + CCNC(=O)c1noc(-c2cc(C(C)C)c(O)cc2O)c1-c1ccc(CN2CCOCC2)cc1 [Luminespib] (partner 0.01 µM) in the same assay as above. Settings: first compound 0.08 µM.
How it was run: as §1
In the case of NCI-H2342, the relative viability is reported as 0.67.
NCI-H1623 gave a relative viability of 0.48.
Cell Line NCI-H727 has a relative viability of 0.245.
With NCI-H1650 the relative viability was 0.182.
NCI-H1993 showed a relative viability of 0.509.
Cell Line SW 1573 has a relative viability of 0.218.
NCI-H838 gave a relative viability of 0.246.
Work on LCLC-103H yielded a relative viability of 0.741.
In the case of NCI-H520, the relative viability is reported as 0.208.
NCI-H2126 showed a relative viability of 0.933.
